US7989447B2, “1,5 and 3,6-substituted indole compounds having NOS inhibitory activity” (NeurAxon, Inc., priority 2006, dated 2011)
Like-named read-outs stand apart in the source and are kept apart here.

Tests used:
Type in all cases: biochemical
[1] = biological target: human endothelial constitutive NOS (eNOS) (Homo sapiens, UniProt P29474); assay: eNOS (Human) enzyme assay, radiometric conversion of [3H]L-arginine to [3H]L-citrulline; conditions: recombinant human enzyme, 37° C., 45 min
Experimental: (§1) Recombinant human inducible NOS (iNOS), human endothelial constitutive NOS (eNOS) or human neuronal constitutive NOS(nNOS) were produced in Baculovirus-infected Sf9 cells (ALEXIS). In a radiometric method, NO synthase activity was determined by measuring the conversion of [^3H]L-arginine to [^3H]L-citrulline. To measure iNOS, 10 μL of enzyme was added to 100 μL of 100 mM HEPES, pH=7,4, containing 1 mM CaCl2, 1 mM EDTA, 1 mM dithiotheitol, 1 μM FMN, 1 μM FAD, 10 μM tetrahydrobiopterin, 120 μM NADPH, and 100 nM CaM. To measure eNOS or nNOS, 10 μL of enzyme was added to 100 μL of 40 mM HEPES, pH=7.4, containing 2.4 mM CaCl2, 1 mM MgCl2, 1 mg/mL BSA, 1 mM EDTA, 1 mM dithiothreitol, 1 μM FMN, 1 μM FAD, 10 μM tetrahydrobiopterin, 1 mM NADPH, and 1.2 μM CaM.
(§2) To measure enzyme inhibition, a 15 μL solution of a test substance was added to the enzyme assay solution, followed by a pre-incubation time of 15 min at RT. The reaction was initiated by addition of 20 μL L-arginine containing 0.25 μCi of [^3H]arginine/mL and 24 μM L-arginine. The total volume of the reaction mixture was 150 μL in every well. The reactions were carried out at 37° C. for 45 min. The reaction was stopped by adding 20 μL of ice-cold buffer containing 100 mM HEPES, 3 mM EGTA, 3 mM EDTA, pH=5.5. [^3H]L-citrulline was separated by DOWEX (ion-exchange resin DOWEX 50 W X 8-400, SIGMA) and the DOWEX was removed by spinning at 12,000 g for 10 min in the centrifuge. An 70 μL aliquot of the supernatant was added to 100 μL of scintillation fluid and the samples were counted in a liquid scintillation counter (1450 Microbeta Jet, Wallac). […] All assays were performed at least in duplicate.

[2] = biological target: human inducible NOS (iNOS) (Homo sapiens, UniProt P35228); assay: iNOS (Human) enzyme assay, radiometric conversion of [3H]L-arginine to [3H]L-citrulline; conditions: recombinant human enzyme, 37° C., 45 min
Experimental: as §1, §2

[3] = biological target: human neuronal constitutive NOS (nNOS) (Homo sapiens, UniProt P29475); assay: nNOS (Human) enzyme assay, radiometric conversion of [3H]L-arginine to [3H]L-citrulline; conditions: for Ratio e/n: human eNOS / human nNOS
Sequence of human neuronal constitutive NOS (nNOS) (P29475 whole entry): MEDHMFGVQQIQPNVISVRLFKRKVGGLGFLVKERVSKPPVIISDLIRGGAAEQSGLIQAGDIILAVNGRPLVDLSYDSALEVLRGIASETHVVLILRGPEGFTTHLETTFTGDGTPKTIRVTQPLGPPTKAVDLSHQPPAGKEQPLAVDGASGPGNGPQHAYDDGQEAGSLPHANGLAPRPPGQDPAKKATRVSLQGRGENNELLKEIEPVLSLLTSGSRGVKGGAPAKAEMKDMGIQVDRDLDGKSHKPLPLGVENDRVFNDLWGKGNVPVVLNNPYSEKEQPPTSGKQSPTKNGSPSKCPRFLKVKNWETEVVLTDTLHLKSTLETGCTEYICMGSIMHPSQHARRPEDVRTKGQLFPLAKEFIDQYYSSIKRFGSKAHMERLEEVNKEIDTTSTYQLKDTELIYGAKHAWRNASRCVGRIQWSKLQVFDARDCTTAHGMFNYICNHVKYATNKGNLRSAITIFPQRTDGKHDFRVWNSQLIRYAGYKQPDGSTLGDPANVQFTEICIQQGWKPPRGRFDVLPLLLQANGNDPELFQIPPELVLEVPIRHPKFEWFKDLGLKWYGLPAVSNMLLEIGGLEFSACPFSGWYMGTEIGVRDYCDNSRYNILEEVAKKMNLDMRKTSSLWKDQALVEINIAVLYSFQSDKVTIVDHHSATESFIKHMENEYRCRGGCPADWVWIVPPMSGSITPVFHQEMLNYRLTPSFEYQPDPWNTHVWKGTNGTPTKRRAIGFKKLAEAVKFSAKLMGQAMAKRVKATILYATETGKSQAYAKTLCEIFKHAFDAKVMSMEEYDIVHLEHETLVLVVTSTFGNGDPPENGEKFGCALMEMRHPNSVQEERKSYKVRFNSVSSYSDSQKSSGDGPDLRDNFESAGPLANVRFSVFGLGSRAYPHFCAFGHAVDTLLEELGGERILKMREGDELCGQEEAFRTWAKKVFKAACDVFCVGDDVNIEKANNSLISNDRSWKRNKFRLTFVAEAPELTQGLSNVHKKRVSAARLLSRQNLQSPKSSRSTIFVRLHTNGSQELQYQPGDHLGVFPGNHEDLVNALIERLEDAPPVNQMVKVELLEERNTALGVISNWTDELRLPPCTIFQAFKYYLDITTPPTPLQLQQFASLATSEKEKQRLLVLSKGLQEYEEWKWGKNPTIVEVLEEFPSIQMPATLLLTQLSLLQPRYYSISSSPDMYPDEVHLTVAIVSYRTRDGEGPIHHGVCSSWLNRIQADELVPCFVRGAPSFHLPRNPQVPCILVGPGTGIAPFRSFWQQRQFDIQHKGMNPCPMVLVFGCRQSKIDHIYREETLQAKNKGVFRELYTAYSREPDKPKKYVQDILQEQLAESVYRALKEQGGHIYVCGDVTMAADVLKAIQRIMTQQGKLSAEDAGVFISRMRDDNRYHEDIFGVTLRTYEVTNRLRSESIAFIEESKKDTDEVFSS

[4] = recombinant human enzyme, 37° C., 45 min, read-out: Human nNOS

Structure (SMILES) | IC50 ([1]; read-out: Human eNOS) [µM] | Ratio e/n [3] | IC50 [3, 4] [µM] | Human iNOS (μM) [2] | IC50 [2] [µM] | IC50 ([1]; Human eNOS (μM)) [µM] | IC50 [3] [µM]
CN1CCCC(n2ccc3cc(NC(=N)c4ccco4)ccc32)CC1 (single isomer, unassigned) [(+)−55] | 24.5 | – | – | – | 10 | – | –
CN1CCCC1CCn1ccc2cc(NC(=N)c3cccs3)ccc21 (single isomer, unassigned) [(+)−57] | 3.37 | – | – | – | 22 | – | –
CN1CCCC(n2ccc3cc(NC(=N)c4ccco4)ccc32)CC1 (single isomer, unassigned) [(−)−55] | 28.5 | – | – | – | 46 | – | –
CN1CCCC1CCn1ccc2cc(NC(=N)c3cccs3)ccc21 (single isomer, unassigned) [(−)−57] | 1.92 | – | – | – | 1.7 | – | –
CCN(CC)CCn1c(Cc2ccc(OC(F)(F)F)cc2)cc2cc(NC(=N)c3cccs3)ccc21 [Compound 11, N-(1-(2-(Diethylamino)ethyl)-2-(4-(trifluoromethoxy)benzyl)-1H-indol-5-yl)thiophene-2-carboximidamide] | – | 5.62 | 0.8 | – | 17 | 4.5 | –
CN1CCCC(n2ccc3cc(NC(=N)c4ccco4)ccc32)CC1 (centres unmarked) [Compound 54, N-(1-(1-methylazepan-4-yl)-1H-indol-5-yl)furan-2-carboximidamide] | 38.5 | – | – | – | 49 | – | –
CN1CCCC(n2ccc3cc(NC(=N)c4cccs4)ccc32)CC1 (centres unmarked) [Compound 58, N-(1-(1-methylazepan-4-yl)-1H-indol-5-yl)thiophene-2-carboximidamide] | 11.5 | 93.49 | 0.12 | – | 7.6 | – | –
N=C(Nc1ccc2c(ccn2C2CN3CCC2CC3)c1)c1cccs1 (centres unmarked) [Compound 71, N-(1-(Quinuclidin-3-yl)-1H-indol-5-yl)thiophene-2-carboximidamide] | 12.1 | 32.79 | 0.36 | – | 29 | – | –
CN1C2CCC1CC(n1ccc3cc(NC(=N)c4cccs4)ccc31)C2 (centres unmarked) [Compound 86, N-(1-(8-methyl-8-azabicyclo[3.2.1]octan-3-yl)-1H-indol-5-yl)thiophene-2-carboximidamide] | 18.9 | 24.70 | 0.76 | – | 11 | – | –
CN1CCC(c2c[nH]c3cc(NC(=N)c4cccs4)ccc23)CC1 [Compound 108, N-[3-(1-methyl-piperidin-4-yl)-1H-indol-6-yl]-thiophene-2-carboxamidine] | 17 | 23.94 | 0.71 | – | 9.3 | – | –
N=C(Nc1ccc2c(C3CN4CCC3CC4)c[nH]c2c1)c1cccs1 (centres unmarked) [Compound 112, N-(3-(quinuclidin-3-yl)-1H-indol-6-yl)thiophene-2-carboximidamide] | 31.4 | 27.78 | – | – | 0.4 | – | 1.13
CCNC1CCC(c2c[nH]c3cc(NC(=N)c4cccs4)ccc23)CC1 (centres unmarked) [Compound 129] | 14.9 | 57.08 | 0.26 | – | 4.2 | – | –
CCNC1CC=C(c2c[nH]c3cc(NC(=N)c4cccs4)ccc23)CC1 (centres unmarked) [Compound 132, N-(3-(4-(Ethylamino)cyclohex-1-enyl)-1H-indol-6-yl)thiophene-2-carboximidamide] | 17.4 | 23.83 | 0.73 | – | 1.93 | – | –

Continued, in another order:

IC50 ([1]; read-out: Human eNOS) [µM] | Ratio e/n [3] | IC50 [3, 4] [µM] | Human iNOS (μM) [2] | Structure (SMILES) | IC50 [2] [µM] | IC50 ([1]; Human eNOS (μM)) [µM] | IC50 [3] [µM]
1.52 | 4.90 | 0.31 | – | CN1CCCC1CCn1c(Cc2ccc(OC(F)(F)F)cc2)cc2cc(NC(=N)c3cccs3)ccc21 (centres unmarked) [Compound 14, N-(1-(2-(1-methylpyrrolidin-2-yl)ethyl)-2-(4-(trifluoromethoxy)benzyl)-1H-indol-5-yl)thiophene-2-carboximidamide] | 93 | – | –
13.2 | – | 1.28 | – | CN1CCCC1CCn1c(-c2ccc([N+](=O)[O-])cc2)cc2cc(NC(=N)c3cccs3)ccc21 (centres unmarked) [Compound 21, N-(1-(2-(1-methylpyrrolidin-2-yl)ethyl)-2-(4-nitrophenyl)-1H-indol-5-yl)thiophene-2-carboximidamide] | 52 | – | –
8.65 | 6.00 | 1.44 | Not Active | CN1CCCC1CCn1ccc2cc(NC(=N)N[N+](=O)[O-])ccc21 (centres unmarked) [Compound 59, 1-(1-(2-(1-methylpyrrolidin-2-yl)ethyl)-1H-indol-5-yl)-3-nitroguanidine] | – | – | –
3.08 | 5.54 | 0.55 | – | N=C(Nc1ccc2c(ccn2-c2ccc(N)nc2)c1)c1cccs1 [Compound 77, N-(1-(6-aminopyridin-3-yl)-1H-indol-5-yl)thiophene-2-carboximidamide] | – | – | –
9.72 | 9.34 | 1.04 | – | N=C(Nc1ccc2c(ccn2C2CCOCC2)c1)c1cccs1 [Compound 90, N-(1-(tetrahydro-2H-pyran-4-yl)-1H-indol-5-yl)thiophene-2-carboximidamide] | – | – | –
3.7 | 21.3 | 0.17 | – | CN(C)CCn1ccc2cc(NC(=N)c3cccs3)ccc21 [Compound 93, N-(1-(2-(dimethylamino)ethyl)-1H-indol-5-yl)thiophene-2-carboximidamide] | – | – | –
9.2 | 53.80 | 0.17 | – | N=C(Nc1ccc2c(ccn2CCN2CCCCC2)c1)c1cccs1 [Compound 96, N-(1-(2-(piperidin-1-yl)ethyl)-1H-indol-5-yl)thiophene-2-carboximidamide] | – | – | –
3.35 | 30.2 | 0.11 | – | CN1CCC[C@H]1Cn1ccc2cc(NC(=N)c3cccs3)ccc21 [Compound 104, (S)—N-(1-((1-methylpyrrolidin-2-yl)methyl)-1H-indol-5-yl)thiophene-2-carboximidamide] | – | – | –
46.2 | 30.19 | 1.53 | – | N=C(Nc1ccc2c(C3=CN4CCC3CC4)c[nH]c2c1)c1cccs1 [Compound 111, N-(3-(1-azabicyclo[2.2.2]oct-2-en-3-yl)-1H-indol-6-yl)thiophene-2-carboximidamide] | – | – | –
7.09 | 35.45 | 0.2 | – | CN1CCC(c2c[nH]c3cc(NC(=N)c4cccs4)ccc23)C1 (centres unmarked) [Compound 117, N-(3-(1-methylpyrrolidin-3-yl)-1H-indol-6-yl) thiophene-2-carboximidamide] | – | – | –
9.47 | 28.96 | 0.32 | – | CNC1CCC(c2c[nH]c3cc(NC(=N)c4cccs4)ccc23)CC1 (centres unmarked) [Compound 123, N-(3-(4-(methylamino)cyclohexyl)-1H-indol-6-yl)thiophene-2-carboximidamide] | – | – | –
21 | 46.4 | 0.45 | – | CNC1CC=C(c2c[nH]c3cc(NC(=N)c4cccs4)ccc23)CC1 (centres unmarked) [Compound 125, N-(3-(4-(methylamino)cyclohex-1-enyl)-1H-indol-6-yl)thiophene-2-carboximidamide] | – | – | –
11.4 | 15.83 | 0.72 | – | CCCN[C@H]1CC[C@H](c2c[nH]c3cc(NC(=N)c4cccs4)ccc32)CC1 [Compound 138, N-(3-((1r,4r)-4-(propylamino)cyclohexyl)-1H-indol-6-yl)thiophene-2-carboximidamide] | – | – | –
6.99 | 23.6 | 0.29 | – | CC(C)NC1CCC(c2c[nH]c3cc(NC(=N)c4cccs4)ccc23)CC1 (centres unmarked) [Compound 142] | – | – | –
